The source of these data is ChEMBL document CHEMBL5321290, “Discovery of the Diphenyl 6-Oxo-1,6-dihydropyridazine-3-carboxylate/carboxamide Analogue J27 for the Treatment of Acute Lung Injury and Sepsis by Targeting JNK2 and Inhibiting the JNK2-NF-κB/MAPK Pathway” (J Med Chem, 2023).

Activity calls are given as the source filed them. The rule behind the calls is not given here.

The target in series [1] is T1, Mitogen-activated protein kinase kinase kinase 7 (Homo sapiens) (UniProt O43318).
T1 sequence (whole entry): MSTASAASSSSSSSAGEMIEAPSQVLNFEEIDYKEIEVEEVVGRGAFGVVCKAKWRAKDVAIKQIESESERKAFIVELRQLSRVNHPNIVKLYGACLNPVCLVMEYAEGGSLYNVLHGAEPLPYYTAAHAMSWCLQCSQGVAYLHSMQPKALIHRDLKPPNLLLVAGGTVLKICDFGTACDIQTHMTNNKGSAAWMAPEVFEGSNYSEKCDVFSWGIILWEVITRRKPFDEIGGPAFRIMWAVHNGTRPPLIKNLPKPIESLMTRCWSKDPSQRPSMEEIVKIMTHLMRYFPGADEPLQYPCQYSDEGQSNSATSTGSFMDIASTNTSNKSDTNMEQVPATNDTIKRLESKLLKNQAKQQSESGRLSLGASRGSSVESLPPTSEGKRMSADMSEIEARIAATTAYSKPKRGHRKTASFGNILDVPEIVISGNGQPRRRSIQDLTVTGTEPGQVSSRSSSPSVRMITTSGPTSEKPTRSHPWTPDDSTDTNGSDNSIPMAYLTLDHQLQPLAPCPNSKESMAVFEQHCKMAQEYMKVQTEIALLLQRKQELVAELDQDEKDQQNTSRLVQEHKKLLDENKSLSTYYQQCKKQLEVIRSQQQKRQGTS
Nature of the series: Inhibition of TAK1 (unknown origin) assessed as inhibition rate at 10 uM by SPR analysis relative to control.

A short description of series [2]: Half life in Sprague-Dawley rat at 10 mg/kg, iv measured upto 24 hrs by UPLC-MS/MS analysis. The class given is ADME, organism-based. The settings on record: in vivo.
The test system of series [3] is J774.A1. Nature of the series: Antiinflammatory activity against mouse J774A.1 cells assessed as inhibition of LPS-stimulated TNFalpha release measured at 10 uM after 30 mins by ELISA relative to control. The settings on record: J774.A1, 0.5 h. The class given is functional. On the technique in general: In an ELISA, binding on a coated surface is turned into a signal by an enzyme label.

The target of series [4] is c-Jun N-terminal kinase (Mus musculus) (UniProt Q91Y86+Q9WTU6+Q61831). The experiment in a line: Inhibition of JNK phosphorylation in mouse J774A.1 cells assessed as decrease in LPS-stimulated JNK phosphorylation level pretreated at 10 uM for 1 hrs followed by induced with LPS for 40 mins by Western blot analysis. The class given is cell-based. The settings on record: J774.1, time 100.0 min. Background: A western blot detects proteins with antibodies after separation by electrophoresis.

In series [5] the test system is J774.A1. The experiment in a line: Antiinflammatory activity against mouse J774A.1 cells assessed as inhibition of LPS-stimulated TNFalpha mRNA expression pretreated for 2 hrs followed by stimulated with LPS by RT-qPCR analysis. The class given is functional, cell-based. The settings on record: dose 2.5-10 µM. (Real-time PCR tracks product formation cycle by cycle.)

A short description of series [6]: Cmax in Sprague-Dawley rat at 10 mg/kg, iv measured upto 24 hrs by UPLC-MS/MS analysis. The class given is ADME, organism-based. Set-up: dose 10 mg/kg, time < 24 hrs, route iv. The settings on record: in vivo.
Series [7] can be described thus: Subacute toxicity in ICR mouse assessed as pathological change in spleen at 500 to 100 mg/kg, IG measured for 10 days by hematoxylin and eosin dye based light microscopy. The class given is organism-based. The settings on record: in vivo, po, 240 h, dose 500-100 mg/kg, time 10 day.
Series [8] has as its system Mus musculus. The experiment in a line: Antiinflammatory activity against LPS-induced septic shock mouse model assessed as improvement in LPS-induced weight loss at 20 mg/kg, po pretreated 1 hr before LPS administration measured upto 120 hrs. The class given is functional, organism-based. The settings on record: time <= 121.0 hrs.
The nature of series [9]: AUC (0 to t) in Sprague-Dawley rat at 10 mg/kg, po measured upto 24 hrs by UPLC-MS/MS analysis. The class given is ADME, organism-based. On the set-up: dose 10 mg/kg, time < 24 hrs, route po. The settings on record: in vivo.
Series [10] in a line: Subacute toxicity in ICR mouse assessed as mortality at 500 to 100 mg/kg, IG measured for 10 days. The class given is organism-based. The settings on record: in vivo, po, 240 h, dose 500-100 mg/kg, time 10 day.
For series [11], the system named is Mus musculus. Nature of the series: Antiinflammatory activity against LPS-induced acute lung injury C57 mouse model assessed as decrease in LPS-induced total cell count in broncho alveolar lavage fluid at 20 mg/kg, po thrice at 12 hrs interval. The settings on record: Bronchoalveolar lavage. The class given is functional, organism-based.
Series [12] in a line: Cytotoxicity against mouse J774A.1 cells assessed as cell viability at 10 uM measured after 24 hrs incubation by MTT assay. The class given is toxicity, cell-based, J774.A1. The settings on record: read-out: Activity.

Chain of c-Jun N-terminal kinase (Mus musculus) (Q61831 whole entry, looked up): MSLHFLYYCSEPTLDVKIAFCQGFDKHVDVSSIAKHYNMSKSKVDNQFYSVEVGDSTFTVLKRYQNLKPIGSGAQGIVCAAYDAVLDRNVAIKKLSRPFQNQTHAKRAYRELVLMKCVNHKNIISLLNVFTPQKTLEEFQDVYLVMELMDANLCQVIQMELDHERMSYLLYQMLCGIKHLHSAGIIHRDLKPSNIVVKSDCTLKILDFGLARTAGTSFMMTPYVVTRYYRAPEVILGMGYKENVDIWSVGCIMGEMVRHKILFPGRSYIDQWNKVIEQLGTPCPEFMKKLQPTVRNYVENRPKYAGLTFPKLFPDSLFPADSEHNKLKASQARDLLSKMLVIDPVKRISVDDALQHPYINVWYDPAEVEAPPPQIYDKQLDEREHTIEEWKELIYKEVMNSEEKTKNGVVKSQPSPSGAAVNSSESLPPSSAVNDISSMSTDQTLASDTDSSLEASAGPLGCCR
Chain of c-Jun N-terminal kinase (Mus musculus) (Q91Y86 whole entry, looked up): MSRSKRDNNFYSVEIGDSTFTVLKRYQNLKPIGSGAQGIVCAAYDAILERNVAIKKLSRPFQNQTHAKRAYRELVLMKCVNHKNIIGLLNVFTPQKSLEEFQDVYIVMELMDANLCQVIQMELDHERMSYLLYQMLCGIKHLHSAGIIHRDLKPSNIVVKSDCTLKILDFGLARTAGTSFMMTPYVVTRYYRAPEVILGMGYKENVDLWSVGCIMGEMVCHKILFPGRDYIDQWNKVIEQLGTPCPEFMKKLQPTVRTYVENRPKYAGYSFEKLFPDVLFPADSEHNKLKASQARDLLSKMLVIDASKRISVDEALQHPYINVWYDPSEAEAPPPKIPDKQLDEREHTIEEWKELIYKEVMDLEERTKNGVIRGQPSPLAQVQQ
Chain of c-Jun N-terminal kinase (Mus musculus) (Q9WTU6 whole entry, looked up): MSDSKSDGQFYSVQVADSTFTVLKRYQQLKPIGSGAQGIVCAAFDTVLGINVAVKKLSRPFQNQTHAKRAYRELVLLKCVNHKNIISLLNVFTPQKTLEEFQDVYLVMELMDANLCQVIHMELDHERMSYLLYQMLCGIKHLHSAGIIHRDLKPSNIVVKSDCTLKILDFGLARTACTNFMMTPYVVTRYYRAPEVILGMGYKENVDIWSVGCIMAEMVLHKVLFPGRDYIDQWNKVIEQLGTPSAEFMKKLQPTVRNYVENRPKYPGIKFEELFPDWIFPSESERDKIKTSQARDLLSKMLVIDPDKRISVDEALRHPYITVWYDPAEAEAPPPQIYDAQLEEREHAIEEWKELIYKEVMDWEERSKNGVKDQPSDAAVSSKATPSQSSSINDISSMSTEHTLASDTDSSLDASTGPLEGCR

Consider `COc1cc2nccc(Oc3ccc(NC(=O)c4nn(-c5ccc(C)cc5)c(=O)cc4C)cc3)c2cc1OC`, for which the inhibition – broadly, the relative decrease from the control value, in per cent – in [1] stood at 8.85%. Also, in series [2], the half-life (usually the time in which the quantity being followed falls by half) was 1.15 h. In addition, in the series on J774.A1 [3], the inhibition at 10 µM was found to be 56.8%. The inhibition entry in series [4] was “Active”. Moreover, the Activity result in the series with J774.A1 [5] was “Dose-Dependent Effect”; in series [7], “Non-Toxic”; in [10], “Non-Toxic”. In [6], the Cmax (in general, the maximum level reached in the sampled fluid or tissue) was found to be 1460 ng/mL. Also, the outcome in the series with Mus musculus [8] was Active. The compound also displayed an AUCt in series [9] of 7792.708 ng·h/mL. In addition, the result in the series with Mus musculus [11] was inactive. Besides, the viability at 24 h, 10 µM in series [12] is over 80%.
